According to patent US9062041B2 (Bayer Intellectual Property GmbH, priority 2011, dated 2015):

What was measured:
Type in all cases: cell-based
human PGD receptor = biological target: T1, human PGD receptor (Homo sapiens, UniProt Q13258); experiment: cAMP antagonism test on the human prostaglandin D receptor (HTRF cAMP detection); settings: selectivity towards hDP, IC50 measured by cAMP antagonism test
T1 sequence (Q13258 1-359): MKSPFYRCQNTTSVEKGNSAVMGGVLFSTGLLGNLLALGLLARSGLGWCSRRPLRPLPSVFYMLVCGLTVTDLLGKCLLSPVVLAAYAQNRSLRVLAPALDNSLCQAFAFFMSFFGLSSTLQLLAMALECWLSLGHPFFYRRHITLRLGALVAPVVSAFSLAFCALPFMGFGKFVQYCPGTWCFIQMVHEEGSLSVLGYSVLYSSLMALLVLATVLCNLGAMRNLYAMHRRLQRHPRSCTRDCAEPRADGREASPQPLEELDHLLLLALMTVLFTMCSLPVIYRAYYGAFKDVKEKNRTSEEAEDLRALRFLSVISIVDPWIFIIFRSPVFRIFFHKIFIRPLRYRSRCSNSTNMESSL
Method in brief: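 HTRF competition read-out (665/620 nm ratio ×10000), where higher FRET means less cAMP, i.e. antagonism. Compounds (0.8 nM–16.5 μM) were preincubated 20 min at RT with cells and cAMP-d2, PGD2 (3× solution, 6 nM) in IBMX-containing PBS added for 30 min at RT, then cells lysed 20 min.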

[1] = biological target: EP2 subtype of the human PGE2 receptor (Homo sapiens, UniProt P43116); experiment: cAMP antagonism test on the human EP2 receptor (HTRF cAMP detection); settings: hEP2 receptor, read-out: Antagonism hEP2 IC50
Sequence of EP2 subtype of the human PGE2 receptor (P43116 whole entry): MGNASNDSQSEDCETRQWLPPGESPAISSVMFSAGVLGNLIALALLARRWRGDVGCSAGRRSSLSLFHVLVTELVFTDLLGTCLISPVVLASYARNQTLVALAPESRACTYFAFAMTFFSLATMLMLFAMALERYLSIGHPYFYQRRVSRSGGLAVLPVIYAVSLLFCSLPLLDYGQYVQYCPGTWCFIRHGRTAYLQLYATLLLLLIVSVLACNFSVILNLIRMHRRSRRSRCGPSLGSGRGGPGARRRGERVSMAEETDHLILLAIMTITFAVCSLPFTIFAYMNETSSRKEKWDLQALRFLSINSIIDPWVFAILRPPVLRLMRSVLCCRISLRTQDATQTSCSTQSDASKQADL
Method in brief: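 Read-out is a competitive HTRF for cAMP: lysate cAMP displaces cAMP-d2 from Eu cryptate-labelled antibody, and antagonism raises the 665/620 nm ratio. Compound (0.8 nM–16.5 μM) added to EP2 cells 20 min at RT before 60 min PGE2 challenge (3× stock 1.5 nM) with IBMX, followed by 20 min lysis.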

[2] = biological target: EP4 subtype of the human PGE2 receptor (Homo sapiens, UniProt P35408); experiment: cAMP antagonism test on the human EP4 receptor (HTRF cAMP detection); settings: selectivity towards hEP4, IC50 measured by cAMP antagonism test
Sequence of EP4 subtype of the human PGE2 receptor (P35408 whole entry): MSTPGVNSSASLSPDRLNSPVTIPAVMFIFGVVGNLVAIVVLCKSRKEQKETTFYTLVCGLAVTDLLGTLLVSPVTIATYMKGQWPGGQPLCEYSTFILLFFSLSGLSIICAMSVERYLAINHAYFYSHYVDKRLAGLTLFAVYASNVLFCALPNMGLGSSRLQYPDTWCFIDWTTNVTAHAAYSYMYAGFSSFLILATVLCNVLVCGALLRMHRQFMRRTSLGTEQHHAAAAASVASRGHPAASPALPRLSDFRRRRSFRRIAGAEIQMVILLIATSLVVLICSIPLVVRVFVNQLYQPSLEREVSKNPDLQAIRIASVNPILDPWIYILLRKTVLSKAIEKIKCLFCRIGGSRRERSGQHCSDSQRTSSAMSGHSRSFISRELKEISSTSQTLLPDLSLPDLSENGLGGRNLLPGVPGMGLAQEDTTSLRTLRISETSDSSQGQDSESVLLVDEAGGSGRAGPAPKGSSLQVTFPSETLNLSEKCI
Method in brief: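 Competitive HTRF cAMP read-out (cAMP-d2 vs Eu-cryptate anti-cAMP antibody, 665/620 nm ratio) on lysed human EP4 cells. Compound (0.8 nM–16.5 μM) applied 20 min at RT before 60 min PGE2 challenge (3× solution 0.3 nM, IBMX present); 20 min lysis precedes reading.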

Cc1c(C(=O)NCCC#N)ccc2nn(CC3CCN(C(=O)c4ccc(Cl)cc4)CC3)cc12 [Example 400, 2-{[1-(4-chlorobenzoyl)piperidin-4-yl]methyl}-N-(2-cyanoethyl)-4-methyl-2H-indazol-5-carboxamide] was tested, and the “Selectivity hEP2/hDP” value (human PGD receptor) was “xxx (xxx > 100)”, the IC50 [1] was 56.1 nM and the “Selectivity hEP2/hEP4” value [2] was “xxx (xxx > 100)”.
For Cc1c(C(=O)NCCOCC(F)(F)F)ccc2nn(CC3CN(C(=O)c4ccc(Cl)cc4)C3)cc12 [Example 162, 2-{[1-(4-chlorobenzoyl)azetidin-3-yl]methyl}-4-methyl-N-[2-(2,2,2-trifluoro-ethoxy)ethyl]-2H-indazol-5-carboxamide], the “Selectivity hEP2/hDP” value (human PGD receptor) was “xxx (xxx > 100)”, the IC50 [1] was 9.33 nM and the “Selectivity hEP2/hEP4” value [2] was “xxx (xxx > 100)”.
Cc1c(C(=O)NCCN2CCC(F)(F)C2)ccc2nn(CC3CN(C(=O)c4ccc(Cl)cc4)C3)cc12 [Example 126, 2-{[1-(4-chlorobenzoyl)azetidin-3-yl]methyl}-N-[2-(3,3-difluoropyrrolidin-1-yl)ethyl]-4-methyl-2H-indazol-5-carboxamide] was tested, and the “Selectivity hEP2/hDP” value (human PGD receptor) was “xxx (xxx > 100)”, the IC50 [1] was 21.2 nM and the “Selectivity hEP2/hEP4” value [2] was “xxx (xxx > 100)”.
With COCCNC(=O)c1cc2cn(CC3CCN(C(=O)c4ccc(C(F)(F)F)c(F)c4)CC3)nc2cc1C [Example 208, 2-({1-[3-fluoro-4-(trifluoromethyl)benzoyl]piperidin-4-yl}methyl)-N-(2-methoxyethyl)-6-methyl-2H-indazol-5-carboxamide] the “Selectivity hEP2/hDP” value (human PGD receptor) was “xxx (xxx > 100)”, the IC50 [1] was 80.6 nM and the “Selectivity hEP2/hEP4” value [2] was “xxx (xxx > 100)”.
For COCCNC(=O)c1ccc2nn(CC3CCN(C(=O)c4ccc(-c5ncco5)cc4)CC3)cc2c1C [Example 35, N-(2-methoxyethyl)-4-methyl-2-({1-[4-(oxazol-2-yl)-benzoyl]piperidin-4-yl}methyl)-2H-indazol-5-carboxamide], the “Selectivity hEP2/hDP” value (human PGD receptor) was “xxx (xxx > 100)”, the IC50 [1] was 69.2 nM and the “Selectivity hEP2/hEP4” value [2] was “xxx (xxx > 100)”.
For Cc1c(C(=O)NCCS(C)(=O)=O)ccc2nn(CC3CCN(C(=O)c4ccc(Oc5ccc(C(F)(F)F)cc5)cc4)CC3)cc12 [Example 245, N-(2-mesylethyl)-4-methyl-2-[(1-{4-[4-(trifluoromethyl)phenoxy]benzoyl}-piperidin-4-yl)methyl]-2H-indazol-5-carboxamide], the “Selectivity hEP2/hDP” value (human PGD receptor) was “xxx (xxx > 100)”, the IC50 [1] was 7.79 nM and the “Selectivity hEP2/hEP4” value [2] was “xxx (xxx > 100)”.
In the case of COCCNC(=O)c1cc2cn(CC3CN(C(=O)c4ccc(C5CC5)cc4)C3)nc2cc1C [Example 200, 2-{[1-(4-cyclopropylbenzoyl)azetidin-3-yl]methyl}-N-(2-methoxyethyl)-6-methyl-2H-indazol-5-carboxamide], the “Selectivity hEP2/hDP” value (human PGD receptor) is reported as “xxx (xxx > 100)”, the IC50 [1] is reported as 15.1 nM and the “Selectivity hEP2/hEP4” value [2] is reported as “xxx (xxx > 100)”.
For COCCNC(=O)c1ccc2nn(CC3CN(C(=O)c4ccc(Cl)cc4)C3)cc2c1OC [Example 214, 2-{[1-(4-chlorobenzoyl)azetidin-3-yl]methyl}-4-methoxy-N-(2-methoxyethyl)-2H-indazol-5-carboxamide], the “Selectivity hEP2/hDP” value (human PGD receptor) was “xxx (xxx > 100)”, the IC50 [1] was 64.9 nM and the “Selectivity hEP2/hEP4” value [2] was “xxx (xxx > 100)”.
With Cc1c(C(=O)NCCOC(F)(F)F)ccc2nn(CC3CCN(C(=O)c4ccc(-c5ccc(F)cc5)cc4)CC3)cc12 [Example 109, 2-({1-[(4′-fluoro-biphenyl-4-yl)-carbonyl]piperidin-4-yl}-methyl)-4-methyl-N-[2-(trifluoro-methoxy)ethyl]-2H-indazol-5-carboxamide] the “Selectivity hEP2/hDP” value (human PGD receptor) was “xxx (xxx > 100)”, the IC50 [1] was 9.53 nM and the “Selectivity hEP2/hEP4” value [2] was “xxx (xxx > 100)”.
COCCNC(=O)c1ccc2nn(CC3CCN(C(=O)c4cccc(C(F)(F)F)c4)CC3)cc2c1C [Example 26, N-(2-methoxyethyl)-4-methyl-2-({1-[3-(trifluoromethyl)-benzoyl]piperidin-4-yl}methyl)-2H-indazol-5-carboxamide] was tested, and the “Selectivity hEP2/hDP” value (human PGD receptor) was “xxx (xxx > 100)”, the IC50 [1] was 24.2 nM and the “Selectivity hEP2/hEP4” value [2] was “xxx (xxx > 100)”.
For COCCNC(=O)c1ccc2nn(CC3CN(C(=O)c4ccc(OC(F)(F)F)cc4)C3)cc2c1OC [Example 254, 4-methoxy-N-(2-methoxyethyl)-2-({1-[4-(trifluoromethoxy)benzoyl]azetidin-3-yl}methyl)-2H-indazol-5-carboxamide], the “Selectivity hEP2/hDP” value (human PGD receptor) was “xxx (xxx > 100)”, the IC50 [1] was 55.2 nM and the “Selectivity hEP2/hEP4” value [2] was “xxx (xxx > 100)”.
With COCCNC(=O)c1ccc2nn(CC3CCN(C(=O)c4cccc(C)c4)CC3)cc2c1C [Example 27, N-(2-methoxyethyl)-4-methyl-2-{[1-(3-methylbenzoyl)-piperidin-4-yl]-methyl}-2H-indazol-5-carboxamide] the “Selectivity hEP2/hDP” value (human PGD receptor) was “xxx (xxx > 100)”, the IC50 [1] was 19.3 nM and the “Selectivity hEP2/hEP4” value [2] was “xxx (xxx > 100)”.
COCCNC(=O)c1ccc2nn(CC3CCN(C(=O)c4ccc(-c5ccc(C(C)(C)C#N)cc5)cc4)CC3)cc2c1C [Example 372, 2-[(1-{[4′-(1-cyano-1-methylethyl)biphenyl-4-yl]carbonyl}piperidin-4-yl)-methyl]-N-(2-methoxyethyl)-4-methyl-2H-indazol-5-carboxamide] was tested, and the “Selectivity hEP2/hDP” value (human PGD receptor) was “xxx (xxx > 100)”, the IC50 [1] was 7.29 nM and the “Selectivity hEP2/hEP4” value [2] was “xxx (xxx > 100)”.
For COCCNC(=O)c1ccc2nn(CC3CCN(C(=O)c4ccc(-c5cnc(C)nc5)cc4)CC3)cc2c1C [Example 379, N-(2-methoxyethyl)-4-methyl-2-({1-[4-(2-methylpyrimidin-5-yl)benzoyl]-piperidin-4-yl}methyl)-2H-indazol-5-carboxamide], the “Selectivity hEP2/hDP” value (human PGD receptor) was “xxx (xxx > 100)”, the IC50 [1] was 62.6 nM and the “Selectivity hEP2/hEP4” value [2] was “xxx (xxx > 100)”.
With COCCNC(=O)c1ccc2nn(CC3CCN(C(=O)c4ccc(Oc5cccc(F)c5)cc4)CC3)cc2c1C [Example 361, 2-({1-[4-(3-fluorophenoxy)benzoyl]piperidin-4-yl}methyl)-N-(2-methoxyethyl)-4-methyl-2H-indazol-5-carboxamide] the “Selectivity hEP2/hDP” value (human PGD receptor) was “xxx (xxx > 100)”, the IC50 [1] was 5.11 nM and the “Selectivity hEP2/hEP4” value [2] was “xxx (xxx > 100)”.
Cc1c(C(=O)NCCS(C)(=O)=O)ccc2nn(CC3CCN(C(=O)c4ccc(Cl)cc4)CC3)cc12 [Example 244, 2-{[1-(4-chlorobenzoyl)piperidin-4-yl]methyl}-N-(2-mesylethyl)-4-methyl-2H-indazol-5-carboxamide] was tested, and the “Selectivity hEP2/hDP” value (human PGD receptor) was “xxx (xxx > 100)”, the IC50 [1] was 44.2 nM and the “Selectivity hEP2/hEP4” value [2] was “xxx (xxx > 100)”.
For Cc1c(C(=O)NCC2CCC2)ccc2nn(CC3CCN(C(=O)c4ccc(Cl)cc4)CC3)cc12 [Example 250, 2-{[1-(4-chlorobenzoyl)piperidin-4-yl]methyl}-N-(cyclobutylmethyl)-4-methyl-2H-indazol-5-carboxamide], the “Selectivity hEP2/hDP” value (human PGD receptor) was “xxx (xxx > 100)”, the IC50 [1] was 30.6 nM and the “Selectivity hEP2/hEP4” value [2] was “xxx (xxx > 100)”.
For Cc1cc2nn(CC3CN(C(=O)c4ccc(OC(F)(F)F)cc4)C3)cc2cc1C(=O)NCC(F)(F)F [Example 195, 6-methyl-N-(2,2,2-trifluoroethyl)-2-({1-[4-(trifluoromethoxy)benzoyl]azetidin-3-yl}methyl)-2H-indazol-5-carboxamide], the “Selectivity hEP2/hDP” value (human PGD receptor) was “xx (xx: 10-100)”, the IC50 [1] was 227 nM and the “Selectivity hEP2/hEP4” value [2] was “xx (xx: 10-100)”.
With Cc1c(C(=O)NCCOCC(F)(F)F)ccc2nn(CC3CCN(C(=O)c4ccc(C(F)(F)F)cc4)CC3)cc12 [Example 93, 4-methyl-N-[2-(2,2,2-trifluoro-ethoxy)ethyl]-2-({1-[4-(trifluoro-methyl)benzoyl]-piperidin-4-yl}-methyl)-2H-indazol-5-carboxamide] the “Selectivity hEP2/hDP” value (human PGD receptor) was “xxx (xxx > 100)”, the IC50 [1] was 11.5 nM and the “Selectivity hEP2/hEP4” value [2] was “xxx (xxx > 100)”.
For Cc1c(C(=O)NCCOCC(F)(F)F)ccc2nn(CC3CCN(C(=O)c4ccc(Cl)cc4)CC3)cc12 [Example 90, 2-{[1-(4-chlorobenzoyl)piperidin-4-yl]methyl}-4-methyl-N-[2-(2,2,2-trifluoro-ethoxy)ethyl]-2H-indazol-5-carboxamide], the “Selectivity hEP2/hDP” value (human PGD receptor) was “xxx (xxx > 100)”, the IC50 [1] was 14.8 nM and the “Selectivity hEP2/hEP4” value [2] was “xxx (xxx > 100)”.
For Cc1cc2nn(CC3CCN(C(=O)c4ccc(S(F)(F)(F)(F)F)cc4)CC3)cc2cc1C(=O)NCCN1CCOCC1 [Example 77, 6-methyl-N-(2-morpholinoethyl)-2-({1-[4-(pentafluoro-λ^6-sulphanyl)benzoyl]piperidin-4-yl}methyl)-2H-indazol-5-carboxamide], the “Selectivity hEP2/hDP” value (human PGD receptor) was “xxx (xxx > 100)”, the IC50 [1] was 53.9 nM and the “Selectivity hEP2/hEP4” value [2] was “xxx (xxx > 100)”.
